Test results from US20240423904A1, “Systems and Methods for Controlling Chemical Reactions Using Ultrasound” (priority 2023, published 2024).

Legend:
[1] = Thermally activated release of camptothecin from mechanophore bis-initiator, 1H NMR and LCMS; format: physicochemical; details: 24 h at 100° C. in toluene-d8, then diluted into 3:1 acetonitrile/methanol
Description: Several embodiments provide confirmation of CPT release via ^1H NMR spectroscopy and LCMS. Prior to mechanochemical activation studies, we first confirmed that camptothecin was released in polar protic solvent upon unmasking of the expected unstable furfuryl carbonate. To enable characterization, the furfuryl carbonate species was generated thermally from small molecule initiator 1-CPT. Masked furfuryl carbonate 1-CPT was dissolved in toluene-d8 and analyzed by ^1H NMR spectroscopy before and after heating for 24 h at 100° C. Comparison to spectrum of the expected maleimide fragment confirmed significant thermal retro-Diels-Alder reaction occurred under these conditions. A drop of this solution was then diluted into 3:1 acetonitrile/methanol and analyzed by LCMS (gradient of 0-50% acetonitrile/water over 4 minutes).

[2] = Stability of free CPT upon exposure to FUS, HPLC; format: physicochemical; details: FUS 10 min, presence or absence of GVs (1.4 nM)
Description: Experiments were performed in duplicate on a sample of CPT in water (˜3 μM). After insonation, samples were diluted 3:1 with a stock solution of IS (40 μM) and concentrations were determined from integration of the peak corresponding to CPT relative to that of the internal standard and scaled by 4/3 to account for dilution.

Raji cells = test: MTT cell viability assay on Raji cells; format: cell-based; details: Homo sapiens, 48 h, pure CPT, 2 days at 37° C.
Description: Raji cells were incubated in RPMI 1640 media with 10% fetal bovine serum and 1% antibacterial Penicillin/Streptomycin (PenStrep) at 37° C. and 5% CO2. An MTT colorimetric assay was used to quantify cell viability.
Raji cells were used to evaluate the effectiveness of CPT release for potential chemotherapy. Raji cells were incubated in RPMI 1640 media, with 10% fetal bovine serum and 1% antibacterial Penicillin/Streptomycin (PenStrep) at 37° C. and 5% CO2. The instructions provided by the manufacturer (Abcam) were followed to perform the MTT assay. Approximately 10,000 Raji cells suspended in 150 μL of media were seeded into each well of a 96-well plate. Subsequently, 50 μL of polymer sample (or pure CPT) at varying concentrations was added to corresponding wells. For calibration purposes, wells without cells and wells with only cells and media were also prepared, representing 0% and 100% cell viability, respectively. After 48 hours of incubation, cells were spun down inside the plate and media were carefully aspirated. Then 50 μL of serum free media and 50 μL of MTT solution were added to each well. Following a 3 h incubation, 150 μL MTT solution was added to each well. […] The absorbance at 590 nm was measured by a microplate reader (TECAN Spark) to quantify the cell viability in each well. Cell viability is calculated using eq.

## CC[C@@]1(OC(=O)OC(C)[C@]23O[C@](COC(=O)C(C)(C)Br)(C=C2Oc2ccccc2)[C@@H]2C(=O)N(CCOC(=O)C(C)(C)Br)C(=O)[C@@H]23)C(=O)OCc2c1cc1n(c2=O)Cc2cc3ccccc3nc2-1 (stereo partly drawn) [1-CPT, ((3aR,4R,7S,7aS)-2-(2-((2-bromo-2-methylpropanoyl)oxy)ethyl)-7-(1-(((((S)-4-ethyl-3,14-dioxo-3,4,12,14-tetrahydro-1H-pyrano[3′,4′:6,7]indolizino[1,2-b]quinolin-4-yl)oxy)carbonyl)oxy)ethyl)-1,3-dioxo-6-phenoxy-1,2,3,3a,7,7a-hexahydro-4H-4,7-epoxyisoindol-4-yl)methyl 2-bromo-2-methylpropanoatebromo-2-methylpropanoate]
[1]
  release of CPT after thermal retro-Diels-Alder reaction: CPT is released

## CC[C@@]1(O)C(=O)OCc2c1cc1n(c2=O)Cc2cc3ccccc3nc2-1 [CPT, camptothecin]
[2]
  stability upon exposure to FUS: stable
Raji cells
  EC50: ~25 nM
